pEC50: −log10 of the molar value. Entries after “also recorded” stand apart in the source; their conditions may differ. Read-outs that look alike come from different tables or passages of the source.
Columns and labels:
[1] = test system: β-cells (dispersed rat islet cells); experiment: primary islet β-cell replication assay (PDX-1/ki-67 co-staining, automated imaging); assay type: cell-based; conditions: for pEC50: Rattus norvegicus; for increase of β-cell replication: 24 h, 5-IT 2 μM, GLP-1 and Ex-4 20 nM and 4 nM, normalized to DMSO
Procedure: Rat islets were isolated as previously described in Gotoh M, Maki T, Kiyoizumi T, Satomi S, Monaco A P: An improved method for isolation of mouse pancreatic islets. Transplantation 40:437-438, 1985, contents of which are herein incorporated by reference in their entirety. Isolated islets were cultured overnight in a tissue culture incubator. The following morning, islets were trypsinized into cellular clusters of 1-3 cells, re-suspended in islet media (Mediatech 99-786-CV; 10% FBS serum (Valley Biomedial BS3033); 8.3 mM Glucose (Sigma G7528); 1× Penicillin/Streptomycin (Invitrogen 15070-063); 1× Glutamax (Invitrogen 35050-079)) and plated into the wells of a 96-well plate (Sigma CLS3904) that had been coated with 804G (a rat bladder carcinoma cell line) conditioned media. The cellular plating density was 60 k cells/well and greater than 95% viability was confirmed at the time of plating. […] For screening, compounds were tested at 1 uM concentration in duplicate. After 24-hours of compound treatment, cells were fixed with fresh 4% PFA (Electron Microscopy Services 15710) for 20 minutes and washed with PBS (VWR 45000-446). Antigen retrieval was performed by heating the cells to 90 degrees Celsius in 0.1 mM EDTA (Ambion AM9260G) in PBS. Cells were then washed and permeabalized with PBS/0.3% Triton X-100 (J.T.Baker X198-07) for 15 minutes. Immunocytochemical staining was then performed as follows. Antigen blocking was performed with 5% normal donkey serum (Jackson ImmunoResearch 017-000-121) in PBS for an hour. Staining was performed by overnight incubation with primary antibody at 4 degrees Celsius. For the primary screen, PDX-1 antibody (R&D AF2419) was used to reveal beta-cells and ki-67 antibody (BD Bioscience 556003) to visualize proliferating cells. Without wishing to be bound by theory, the failure of prior beta-cell replication screens is primarily a consequence of using a cytoplasmic marker (Insulin) as the β-cell identifier. The use of a cytoplasmic marker prevents accurate attribution of nuclear replication to a specific cell identity i.e., in dense culture it is impossible to attribute a cytoplasm to a specific nucleus given the proximity to multiple nuclei. Additional Immunohistochemistry antibodies included Phosphohistone 3 (Millipore 06-570), Insulin (Dako A0564), Glucagon (Millipore 4031-01F) and Vimentin (Millipore ab5733). For western blotting anti-bodies included ADK (Abcam ab38010, ab64825) and RAN (BD Bioscience 610340) as a loading control.
Once compound-treated islet cells were stained, β-cell replication was assessed via automated image acquisition and analysis using a Cellomics ArrayScanVTI. The acquisition thresholds/parameters were established such that the computer-based calls of replication events were consistent with human-based calls. The parameters used were directed at the identification of (1) PDX-1+ cells and (2) ki-67 positive staining within the PDX-1 positive area. The algorithm was a three step process. First the nuclear area was predicted by the software based upon the expected PDX-1 staining pattern. Second PDX-1 positive cells (selected objects) were counted based upon the average staining intensity within the predicted nuclear area (Note: total signal intensity was essentially equal in quality but was not typically used). Third, the number of PDX-1 positive cells (selected objects) that simultaneously were Ki-67 positive was determined by determining the average fluorescence intensity of ki-67 staining within the predicted nuclear area (again, total intensity was also occasionally used with equal efficacy). The specific thresholds (fluorescence intensities) varied from experiment to experiment. In general, the basal replication rate was set at roughly 1% i.e., the algorithm was varied until 1% of DMSO treated PDX+ cells were reported to be double positive for PDX-1 and ki67. […]

islet β-cells = experiment: in vivo β-cell replication (BRDU incorporation); design: species or system mouse; conditions: mice
From the text: 24-hours post treatment, animals were sacrificed and the pancreas was fixed, sectioned and stained for PDX-1 and BRDU (Amaersham RPN202). Every fourth section was included in analysis and a minimum of 2000 PDX-1^+ per animal were counted.
(§1) A minority of these cells were not exocrine cells. […] Dividing cells were BRDU^+ (Amaersham RPN202).

porcine β-cells = experiment: porcine islet β-cell replication (PDX-1/ki-67); assay type: cell-based; conditions: FIG. 13b bottom
Procedure: (§2) Rat and mouse islets were isolated as previously described. (M. Gotoh, et al., Transplantation 43, 725-730 (1987)) All animal work was approved and carried out in accordance with our institutional animal care and use committee. Porcine islets were provided by VitaCyte (Indianapolis, Id.). Islets were incubated (37° C., 5% CO2) overnight in islet media (Mediatech 99-786-CV; 10% FBS serum (Valley Biomedial BS3033); 8.3 mM Glucose (Sigma G7528); 1× Penicillin/Streptomycin (Invitrogen 15070-063); 1× Glutamax (Invitrogen 35050-079)). The following morning, islets were trypsinized into cellular clusters of 1-3 cells, re-suspended in islet media and plated into the wells of a 96-well plate (Sigma CLS3904) that had been coated with 804G (a rat bladder carcinoma cell line) conditioned media. The cellular plating density was 60 k cells/well and greater than 95% viability was confirmed at the time of plating. The islet cells were allowed 48-hours to adhere at which time the media was changed (as above, except 2% serum, 5 mM glucose) and the cells were compound treated. For screening, compounds were tested at 1 μM and 10 μM concentrations in duplicate on a single occasion. After 24-hours of compound treatment, cells were fixed with fresh 4% PFA. Antigen retrieval was performed by heating the cells to 90 degrees Celsius in 0.1 M EDTA in distilled water. […]

exocrine cells = experiment: in vivo exocrine cell replication (BRDU incorporation); design: species or system mouse; conditions: mice, 21 mg/kg, 24 h
From the text: as §1

murine β-cells = experiment: murine islet β-cell replication (PDX-1/ki-67); assay type: cell-based, mouse; conditions: FIG. 13b top
Procedure: as §2

[2] = compared to 5-IT; Zheng et al. 2001; cited from earlier work

Compound: Nc1ncnc2c1c(I)cn2[C@H]1CC[C@@H](CO)O1 [7-Iodo-2,3-dideoxy-7-deazadenosine, 7-deaza-7-iodo-2′,3′-dideoxyadenosine]
- β-cell replication after treatment with additional ADK-Is ([1]; FIG. 17b, 7-Iodo-2,3-dideoxy-7-deazadenosine 20 μM, 10 μM, Aristeromycin 6 μM, 1 μM): increased

Compound: Nc1ncnc2nc(-c3ccc(N4CCOCC4)nc3)cc(-c3cccc(Br)c3)c12 [ABT-702, 5-(3-bromophenyl)-7-(6-morpholinopyridin-3-yl)pyrido[2,3-d]pyrimidin-4-amine]
- in vivo β-cell replication rate, β-cells identified by insulin immunostaining (islet β-cells; separate cohort, FIG. 20): increases
- increase in BRDU incorporation by β-cells in vivo (PDX-1 identified) (islet β-cells; single intraperitoneal injection, 21 mg/kg, 24 h): 2 fold
- induction of β-cell replication, porcine islet cells (porcine β-cells): induction of β-cell replication similar to that observed for rat islet cells
- in vivo replication rate of exocrine cells (exocrine cells): did not increase
- induction of β-cell replication, murine islet cells (murine β-cells): induction of β-cell replication similar to that observed for rat islet cells
- % of Ki-67 positive β-cells (PDX-1 and Ki-67 positive cells), dose curve ([1]; A10 0.019-10 uM, B8 0.23-30 uM): increased in a dose dependent manner
- pEC50 ([1]; FIG. 13c dose-response curves, read-out: EC50, β-cell proliferation in rat islet cultures): 5.15
- pEC50 ([1]; dose curves FIG. 2a (A10) and FIG. 3 (B8), Ki-67 positive β-cells, read-out: EC50 for β-cell proliferation): 5.04
- half-life [2]: longer half-life compared to 5-IT

Compound: NC(=O)c1ncn([C@@H]2O[C@H](CO)[C@@H](O)[C@H]2O)c1N [AICAR, 5-aminoimidazole-4-carboxamide ribonucleoside]
- % β-cell replication ([1]; AICAR 3.3 μM): increase

Compound: c1cc(-c2cnn3cc(-c4ccc(OCCN5CCCCC5)cc4)cnc23)ccn1 [Cpd C]
- beta-cell replication with A10 relative to the uninhibited controls ([1]; Cpd C 10 μM): decrease

Compound: Nc1ncnc2c1ncn2[C@@H]1O[C@H](CO)[C@@H](O)[C@H]1O [adenosine]
- effect on % PDX-1 and Ki-67 expressing cells (β-cell proliferation) ([1]; rat islets, adenosine 0.05-1000 uM): little effect; also recorded: no effect

Compound: Exendin-4 [Ex-4]
- increase of β-cell replication [1]: ~1.5 fold

Compound: Glucagon-like peptide-1 [GLP-1]
- increase of β-cell replication [1]: ~1.5 fold

From patent US20130023491A1, “BETA-CELL REPLICATION PROMOTING COMPOUNDS AND METHODS OF THEIR USE” (President and Fellows of Harvard College, priority 2009, published 2013)
